Results taken from patent US10723741B1, “DNA polymerase IIIC inhibitors and use thereof” (Acurx Pharmaceuticals, LLC, priority 2018, dated 2020).
Converted amounts (≈) assume the structure as drawn. Like-named read-outs stand apart in the source and are kept apart here.

How the values were obtained:
Type in all cases: cell-based
[1] = tested on: Enterococcus faecium ATCC 700221 (VRE); assay: Broth microdilution MIC, E. faecium ATCC 700221 (VRE); details: Enterococcus faecium, broth microdilution, 37° C., 20 hours
Procedure, shortened: (§1)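 Two-fold dilutions from 64 to 0.0625 μg/ml final, 1% DMSO, were inoculated at ~5.0×10^5 cfu/ml in the strain's test medium and kept 20 h at 37 °C in ambient atmosphere. Colonies were grown on MHA, with S. pneumoniae on blood agar under 5% CO2.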

[2] = tested on: Escherichia coli ATCC 25922; assay: Broth microdilution MIC, E. coli ATCC 25922 (MHIIB w & w/o 4 mM EDTA); details: broth microdilution, 37° C., 20 hours; for MIC: Escherichia coli, ATCC25922, without EDTA, read-out: MIC E. coli ATCC 25922; for MIC E. coli ATCC 25922 + 4 mM EDTA: with 4 mM EDTA
Procedure, shortened: as §1

[3] = tested on: Staphylococcus aureus NRS384 (MRSA); assay: Broth microdilution MIC, S. aureus NRS384 (MRSA); details: Staphylococcus aureus, broth microdilution, 37° C., 20 hours
Procedure, shortened: as §1

[4] = tested on: Enterococcus faecalis ATCC 29212; assay: Broth microdilution MIC, E. faecalis ATCC 29212; details: ATCC29212, broth microdilution, 37° C., 20 hours, read-out: MIC E. faecalis ATCC 29212
Procedure, shortened: as §1

[5] = tested on: Staphylococcus aureus ATCC 29213 (MSSA); assay: Broth microdilution MIC, S. aureus ATCC 29213 (MSSA); details: broth microdilution, 37° C., 20 hours, read-out: MIC S. aureus ATCC 29213 (MSSA)
Procedure, shortened: as §1

[6] = tested on: Streptococcus pneumoniae ATCC 49619; assay: Broth microdilution MIC, S. pneumoniae ATCC 49619; details: ATCC49619, broth microdilution, 37° C., 20 hours, read-out: MIC S. pneumoniae ATCC 49619
Procedure, shortened: as §1

[7] = tested on: Bacillus subtilis ATCC 6633; assay: Broth microdilution MIC, B. subtilis ATCC 6633; details: ATCC6633, broth microdilution, 37° C., 20 hours, read-out: MIC B. subtilis ATCC 6633
Procedure, shortened: as §1

[8] = read-out: MIC E. faecium ATCC 700221 (VRE)

SMILES | MIC [1, 8] | MIC ([1]; MHIIB, read-out: MIC against E. faecium ATCC 700221 (VRE)) | MIC [2] | MIC E. coli ATCC 25922 + 4 mM EDTA [2] | MIC ([3]; read-out: MIC NRS 384 (MRSA)) | MIC ([3]; MHIIB, read-out: MIC against S. aureus NRS 384 (MRSA)) | MIC [4] | MIC [5] | MIC [6] | MIC [7]
O=c1[nH]c(NCc2ccc(Cl)c(Cl)c2)nc2cnn(CC3CCC3)c12 [Compound 134, 1-(Cyclobutylmethyl)-5-((3,4-dichlorobenzyl)amino)-1H-pyrazolo[4,3-d]pyrimidin-7(6H)-one] | 1 µg/mL (≈ 2.64 µM) | ≤ 1 µg/mL | > 64 µg/mL | >64 µg/mL | 1 µg/mL (≈ 2.64 µM) | ≤ 1 µg/mL | > 64 µg/mL | 1 µg/mL (≈ 2.64 µM) | 8 µg/mL (≈ 21.1 µM) | 0.5 µg/mL (≈ 1.32 µM)
O=c1[nH]c(NCc2ccc(Cl)c(Cl)c2)nc2cn(CC3CCC3)nc12 [Compound 135, 2-(Cyclobutylmethyl)-5-((3,4-dichlorobenzyl)amino)-2H-pyrazolo[4,3-d]pyrimidin-7(6H)-one] | 8 µg/mL (≈ 21.1 µM) |  | > 64 µg/mL | 8 µg/mL | 8 µg/mL (≈ 21.1 µM) |  | > 64 µg/mL | 32 µg/mL (≈ 84.6 µM) | 16 µg/mL (≈ 42.3 µM) | 4 µg/mL (≈ 10.6 µM)
COCCOCCn1ncc2nc(NCc3ccc(Cl)c(Cl)c3)[nH]c(=O)c21 [Compound 136, 5-((3,4-Dichlorobenzyl)amino)-1-(2-(2-methoxyethoxy)ethyl)-1H-pyrazolo[4,3-d]pyrimidin-7(6H)-one] | 2 µg/mL (≈ 4.85 µM) |  | > 64 µg/mL | >64 µg/mL | 4 µg/mL (≈ 9.7 µM) |  | 4 µg/mL (≈ 9.7 µM) | 4 µg/mL (≈ 9.7 µM) | 2 µg/mL (≈ 4.85 µM) | 1 µg/mL (≈ 2.43 µM)
COCCOCCn1cc2nc(NCc3ccc(Cl)c(Cl)c3)[nH]c(=O)c2n1 [Compound 137, 5-((3,4-Dichlorobenzyl)amino)-2-(2-(2-methoxyethoxy)ethyl)-2H-pyrazolo[4,3-d]pyrimidin-7(6H)-one] | 16 µg/mL (≈ 38.8 µM) |  | > 64 µg/mL | >64 µg/mL | 32 µg/mL (≈ 77.6 µM) |  | 32 µg/mL (≈ 77.6 µM) | 32 µg/mL (≈ 77.6 µM) | 16 µg/mL (≈ 38.8 µM) | 16 µg/mL (≈ 38.8 µM)
COCCOCn1ncc2nc(NCc3ccc(Cl)c(Cl)c3)[nH]c(=O)c21 [Compound 138, 5-((3,4-dichlorobenzyl)amino)-1-((2-methoxyethoxy)methyl)-1H-pyrazolo[4,3-d]pyrimidin-7(6H)-one] | 2 µg/mL (≈ 5.02 µM) |  | > 64 µg/mL | >64 µg/mL | 2 µg/mL (≈ 5.02 µM) |  | 4 µg/mL (≈ 10 µM) | 2 µg/mL (≈ 5.02 µM) | 2 µg/mL (≈ 5.02 µM) | 1 µg/mL (≈ 2.51 µM)
O=c1[nH]c(NCc2ccc(Cl)c(Cl)c2)nc2cnn(-c3ncccn3)c12 [Compound 139, 5-((3,4-Dichlorobenzyl)amino)-1-(pyrimidin-2-yl)-1H-pyrazolo[4,3-d]pyrimidin-7(6H)-one] | > 64 µg/mL |  | > 64 µg/mL | >64 µg/mL | > 64 µg/mL |  | > 64 µg/mL | > 64 µg/mL | > 64 µg/mL | > 64 µg/mL
O=c1[nH]c(NCc2ccc(Cl)c(Cl)c2)nc2cn(-c3ncccn3)nc12 [Compound 140, 5-((3,4-Dichlorobenzyl)amino)-2-(pyrimidin-2-yl)-2H-pyrazolo[4,3-d]pyrimidin-7(6H)-one] | 32 µg/mL (≈ 82.4 µM) |  | > 64 µg/mL | >64 µg/mL | > 64 µg/mL |  | > 64 µg/mL | > 64 µg/mL | 4 µg/mL (≈ 10.3 µM) | 4 µg/mL (≈ 10.3 µM)
O=C(O)COCCn1cc2nc(NCc3ccc(Cl)c(Cl)c3)[nH]c(=O)c2n1 [Compound 141, 2-(2-(5-((3,4-Dichlorobenzyl)amino)-7-oxo-6,7-dihydro-2H-pyrazolo[4,3-d]pyrimidin-2-yl)ethoxy)acetic acid] | > 64 µg/mL |  | > 64 µg/mL | >64 µg/mL | > 64 µg/mL |  | > 64 µg/mL | > 64 µg/mL | > 64 µg/mL | > 64 µg/mL
O=c1[nH]c(NCc2ccc(Cl)c(Cl)c2)nc2cnn(C3COC3)c12 [Compound 142, 5-((3,4-Dichlorobenzyl)amino)-1-(oxetan-3-yl)-1H-pyrazolo[4,3-d]pyrimidin-7(6H)-one] | 2 µg/mL (≈ 5.46 µM) |  | > 64 µg/mL | >64 µg/mL | 2 µg/mL (≈ 5.46 µM) |  | 4 µg/mL (≈ 10.9 µM) | 4 µg/mL (≈ 10.9 µM) | 4 µg/mL (≈ 10.9 µM) | 1 µg/mL (≈ 2.73 µM)
O=c1[nH]c(NCc2ccc(Cl)c(Cl)c2)nc2cn(C3COC3)nc12 [Compound 143, 5-((3,4-Dichlorobenzyl)amino)-2-(oxetan-3-yl)-2H-pyrazolo[4,3-d]pyrimidin-7(6H)-one] | 32 µg/mL (≈ 87.4 µM) |  | > 64 µg/mL | >64 µg/mL | 32 µg/mL (≈ 87.4 µM) |  | 32 µg/mL (≈ 87.4 µM) | 64 µg/mL (≈ 175 µM) | 16 µg/mL (≈ 43.7 µM) | 16 µg/mL (≈ 43.7 µM)
O=c1[nH]c(NCc2ccc(Cl)c(Cl)c2)nc2cnn(Cc3ncco3)c12 [Compound 144, 5-((3,4-Dichlorobenzyl)amino)-1-(oxazol-2-ylmethyl)-1H-pyrazolo[4,3-d]pyrimidin-7(6H)-one] | 2 µg/mL (≈ 5.11 µM) |  | > 64 µg/mL | >64 µg/mL | 4 µg/mL (≈ 10.2 µM) |  | 16 µg/mL (≈ 40.9 µM) | 4 µg/mL (≈ 10.2 µM) | 8 µg/mL (≈ 20.4 µM) | 2 µg/mL (≈ 5.11 µM)
O=C(O)CCCn1ncc2nc(NCc3ccc(Cl)c(Cl)c3)[nH]c(=O)c21 [Compound 145, 4-(5-((3,4-Dichlorobenzyl)amino)-7-oxo-6,7-dihydro-1H-pyrazolo[4,3-d]pyrimidin-1-yl)butanoic acid] | 16 µg/mL (≈ 40.4 µM) |  | > 64 µg/mL | >64 µg/mL | 64 µg/mL (≈ 162 µM) |  | 64 µg/mL (≈ 162 µM) | 64 µg/mL (≈ 162 µM) | 16 µg/mL (≈ 40.4 µM) | 32 µg/mL (≈ 80.8 µM)
CP(C)(=O)CCCCn1ncc2nc(NCc3ccc(Cl)c(Cl)c3)[nH]c(=O)c21 [Compound 146, 5-((3,4-Dichlorobenzyl)amino)-1-(4-(dimethylphosphoryl)butyl)-1H-pyrazolo[4,3-d]pyrimidin-7(6H)-one] | 32 µg/mL (≈ 72.4 µM) |  | > 64 µg/mL | >64 µg/mL | > 64 µg/mL |  | 64 µg/mL (≈ 145 µM) | > 64 µg/mL | 32 µg/mL (≈ 72.4 µM) | 32 µg/mL (≈ 72.4 µM)
CN1CCOC(Cn2ncc3nc(NCc4ccc(Cl)c(Cl)c4)[nH]c(=O)c32)C1.Cl (centres unmarked) [Compound 147, 5-((3,4-dichlorobenzyl)amino)-1-((4-methylmorpholin-2-yl)methyl)-1H-pyrazolo[4,3-d]pyrimidin-7(6H)-one hydrochloride] | 2 µg/mL |  | > 64 µg/mL | 64 µg/mL | 4 µg/mL |  | 8 µg/mL | 8 µg/mL | 4 µg/mL | 2 µg/mL
CC(C)(C)OC(=O)N1CCOC(Cn2ncc3nc(NCc4ccc(Cl)c(Cl)c4)[nH]c(=O)c32)C1 (centres unmarked) [Compound 148, tert-butyl 2-((5-((3,4-dichlorobenzyl)amino)-7-oxo-6,7-dihydro-1H-pyrazolo[4,3-d]pyrimidin-1-yl)methyl)morpholine-4-carboxylate] | 4 µg/mL (≈ 7.85 µM) |  | > 64 µg/mL | >64 µg/mL | 4 µg/mL (≈ 7.85 µM) |  | 16 µg/mL (≈ 31.4 µM) | 8 µg/mL (≈ 15.7 µM) | 16 µg/mL (≈ 31.4 µM) | 2 µg/mL (≈ 3.93 µM)
